Laboratory results as given in US7449466B2, “Cyclic aminophenyl sulfamate derivative” (Aska Pharmaceutical Co., Ltd., priority 2003, dated 2008).

Assays:
MCF-7 cells = experiment: MCF-7 cell proliferation measurement (MTT) for examining estrogenic activity; format: cell-based, human; details: 4 days, 570 nm
Procedure: (3) MCF-7 Cell Proliferation Measurement for Examining Estrogenic Activity:
Stimulation of MCF-7 cell proliferation induced by estrogenic activity of each test compound was measured.
MCF-7 cells were cultured in 10% fetal bovine serum (FBS)-containing RPMI 1640 medium which was free from Phenol Red, using a 75 cm^2 culture flask. Then the medium was changed to RPMI 1640 medium containing 10% of FBS from which emdogenous steroid had been eliminated by charcoal treatment but containing no Phenol Red. Renewing the medium every two days, the culture was continued for 4 days. By this step estrogen was removed from the MCF-7 cells.
The MCF-7 cells were seeded on 96-well plates, 2,000 cells per well, and cultured for 24 hours to immobilize the cells on the plate. After the cell immobilization, the medium in each well was changed to RPMI 1640 medium containing 10^−6M test compound and 10% of charcoal-treated FBS but containing no Phenol Red, and the culture was continued for further 4 days, during which the medium was changed every day to one newly prepared before the use. Also control wells to which no test compound was added were provided.
After the end of the culture, the cell proliferation was measured by MTT (3-(4,5-dimethylthiazol-2-yl)-2,5-diphenyl-2H-tetrazolium bromide; Sigma-Aldrich Japan Co.) method. That is, an MTT solution as dissolved in PBS at a concentration of 5 mg/mL was added to the 96-well plate accommodating the cells, at a rate of 10 μL/well, followed by 2 hours' incubation at 37° C. After the end of the incubation, the medium was removed and the formazan which was taken into the cells and changed was dissolved with 100 μL of dimethylsulfoxide. Absorbance of the formazan was measured at wavelength 570 nm, using a microplate reader, subtracting the 630 nm background.
As shown by the Table 3, absorbance values of the wells to which the test compounds were added were invariably less than 150% of the absorbance of the control well, and it was confirmed that the test compounds were free of estrogenic activity.

steroid sulfatase [1] = target: T1, steroid sulfatase (Rattus norvegicus, UniProt P15589); experiment: Steroid sulfatase inhibitory activity (in vivo), liver and uterus of ovariectomized rats after oral dosing; details: 0.5 mg/kg p.o. once a day for seven days, ovariectomized female SD rats
T1 construct: The livers and uteri were separately minced with scissors and suspended in cooled PBS containing 250 mM sucrose; from tissue; host or cells: liver and uterus of ovariectomized female SD rats (2,000 x g supernatant of homogenate)
T1 sequence (P15589 20-577): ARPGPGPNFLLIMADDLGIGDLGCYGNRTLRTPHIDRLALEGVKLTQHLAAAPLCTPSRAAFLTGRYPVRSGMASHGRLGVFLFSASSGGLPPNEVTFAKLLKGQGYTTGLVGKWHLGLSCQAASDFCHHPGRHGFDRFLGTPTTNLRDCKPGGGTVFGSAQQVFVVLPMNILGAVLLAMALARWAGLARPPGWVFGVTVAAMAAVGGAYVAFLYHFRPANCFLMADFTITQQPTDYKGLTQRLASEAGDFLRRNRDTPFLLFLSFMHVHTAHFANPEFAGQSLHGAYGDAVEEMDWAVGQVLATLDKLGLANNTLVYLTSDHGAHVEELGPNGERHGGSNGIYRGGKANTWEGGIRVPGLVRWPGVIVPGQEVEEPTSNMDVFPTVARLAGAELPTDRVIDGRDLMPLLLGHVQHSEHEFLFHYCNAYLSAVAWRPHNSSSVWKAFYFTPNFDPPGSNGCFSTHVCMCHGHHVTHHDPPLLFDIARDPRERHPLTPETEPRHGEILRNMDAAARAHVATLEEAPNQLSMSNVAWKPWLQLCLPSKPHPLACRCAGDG
Procedure: (2) Measurement of Steroid Sulfatase Inhibitory Activity (in vivo):
To six/group of female SD rats which had undergone ovariectomy, the test compounds as each suspended in 0.5% polyoxyethylene (20) sorbitan monooleate (Tween 80) were orally administered once a day for seven days. On the next day of the last administration, the rats were sacrificed under ether anesthesia. The bodies were anatomized and their livers and uteri were extracted, which were washed with cooled PBS and stored below −70° C. The livers and uteri were separately minced with scissors and suspended in cooled PBS containing 250 mM sucrose. Each of the suspensions was homogenized with a homogenizer under cooling with ice, from which neclei and cell debris were eliminated by centrifugation at 2,000×g for 20 minutes (4° C.). Protein concentration of each of the supernatant was measured by Bradford's method (Anal. Biochem., 72, 248-254 (1976)).
To 2-200 μg of the supernatant protein mass and 50 μL of 60 μM estrone-3-sulfate containing about 100 nCi of [6,7-^3H]estrone-3-sulfate (purchased from Perkin Elmer Life Sciences, Boston, Mass., U.S.A.; specific activity, 40-60 Ci/mmol), PBS was added to make the total amount 150 μL, followed by incubation at 37° C. for 30 minutes. After the incubation, the amount of hydrolyzed [6,7-^3H]estrone-3-sulfate was calculated by a method similar to the in vitro measurement in (1) above. Also steroid sulfatase activity per mg of the protein was calculated, and from the amount of the hydrolyzed [6,7-^3H]estrone-3-sulfate and the calculated steroid sulfatase activity per mg of the protein, the tested compound's steroid sulfatase inhibitory rate was determined.

steroid sulfatase [2] = target: T2, steroid sulfatase (Homo sapiens, UniProt P08842); experiment: Steroid sulfatase inhibitory activity (in vitro), microsomal fraction of MCF-7 cells, [3H]estrone-3-sulfate hydrolysis; format: biochemical; parameters: microsomal fraction of MCF-7 human breast cancer cells was used; endogenous in cells; host or cells: MCF-7 human breast cancer cells (microsomal fraction); details: MCF-7 microsomal fraction, 37° C., 30 minutes; for Inhibitory rate (%) (10^−6 M): 10^−6 M test compound; for Inhibitory rate (%) (10^−7 M): 10^−7 M test compound
T2 sequence (P08842 22-583): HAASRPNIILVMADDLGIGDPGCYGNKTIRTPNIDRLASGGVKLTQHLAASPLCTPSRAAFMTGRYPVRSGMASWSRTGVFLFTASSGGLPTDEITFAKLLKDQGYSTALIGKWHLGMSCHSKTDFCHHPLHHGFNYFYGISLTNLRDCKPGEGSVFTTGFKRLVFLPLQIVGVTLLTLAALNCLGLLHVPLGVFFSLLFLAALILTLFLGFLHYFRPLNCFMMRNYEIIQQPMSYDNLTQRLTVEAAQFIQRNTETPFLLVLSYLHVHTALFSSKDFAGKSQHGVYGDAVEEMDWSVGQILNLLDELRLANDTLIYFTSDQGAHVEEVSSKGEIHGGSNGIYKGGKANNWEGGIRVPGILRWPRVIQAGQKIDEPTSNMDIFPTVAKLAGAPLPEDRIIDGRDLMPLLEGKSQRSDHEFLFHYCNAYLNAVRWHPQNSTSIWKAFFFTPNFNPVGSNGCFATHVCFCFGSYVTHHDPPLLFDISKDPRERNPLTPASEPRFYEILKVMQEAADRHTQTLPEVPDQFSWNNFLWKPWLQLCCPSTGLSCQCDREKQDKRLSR
Procedure: (1) Measurement of Steroid Sulfatase Inhibitory Activity (in vitro):
As the source of steroid sulfatase enzyme, microsomal fraction of MCF-7 human breast cancer cells was used.
To phosphate buffered saline (PBS), one of the test compounds, the microsomal fraction and 50 μL of 60 μM estrone-3-sulfate containing about 100 nCi of [6,7-^3H]estrone-3-sulfate (purchased from Perkin Elmer Life Sciences, Boston, Mass., USA; specific activity, 40-60 Ci/mmol) were added to make the total amount of the reaction system 150 μL, which was incubated at 37° C. for 30 minutes. After the incubation, 50 μL of PBS containing about 2 nCi of [4-^14C] estrone (purchased from Perkin Elmer Life Sciences, Boston, Mass., USA; specific activity 45-60 mCi/mmol) was added and stirred. Further 800 μL of toluene was added, and the whole system was thoroughly shaken for 30 seconds, followed by centrifugation at 2,000×g for 10 minutes to separate the acqueous phase from the organic phase. A part (400 μL) of the organic phase was taken and measured of its ^3H and ^14C contents with scintillation spectrometer.
The mass of hydrolyzed [6,7-^3H]estrone-3-sulfate was calculated from the count number of the obtained ^3H (as corrected regarding the amount of the used organic phase and the recovered amount of [4-^14C]estrone) and the specific activity of the substrate ([6,7-^3H]estrone-3-sulfate) to determine the steroid sulfatase inhibitory rate of each test compound.

steroid sulfatase [3] = target: T2, steroid sulfatase; details: background statement; cited from earlier work
[4] = background statement; cited from earlier work

Row | SMILES | Absorbance relative to that of the control well (10^−6 M, %) (MCF-7 cells) [%] | Inhibitiory rate (0.5 mg/kg, p.o., %) Liver (steroid sulfatase [1]) [%] | Inhibitiory rate (0.5 mg/kg, p.o., %) Uterus (steroid sulfatase [1]) [%] | Inhibitory rate (%) (10^−6 M) (steroid sulfatase [2]) | Inhibitory rate (%) (10^−7 M) (steroid sulfatase [2]) | steroid sulfatase inhibiting activity (steroid sulfatase [3]) | estrogenic activity [4]
1 | NS(=O)(=O)Oc1cc(F)c(N2CCN(CCCC3CCCCC3)CC2)cc1F [Example 45, 4-[4-(3-cyclohexylpropyl)piperazin-1-yl]-2,5-difluorophenyl-O-sulfamate] | 91.4 | 99.09 | 99.32 | 98.5 | 88.6 | – | –
2 | NS(=O)(=O)Oc1cc(F)c(N2CCN(S(=O)(=O)c3ccc(Cl)cc3)CC2)cc1F [Example 55, 4-[4-(4-chlorophenylsulfonyl)piperazin-1-yl]-2,5-difluorophenyl-O-sulfamate] | 64.6 | – | – | 100.0 | 97.5 | – | –
3 | CCCCCCCCCCCCCC(=O)NCCc1ccc(OS(N)(=O)=O)cc1 [DU-14, 4-(2-myristoylaminoethyl)phenyl sulfamate] | – | – | – | – | – | low level of steroid sulfatase inhibiting activity | free from estrogenic activity
4 | CCCCCCCCS(=O)(=O)N1CCN(c2cc(F)c(OS(N)(=O)=O)cc2F)CC1 [Example 52, 2,5-difluoro-4-[4-(octylsulfonyl)piperazin-1-yl]phenyl-O-sulfamate] | 112.0 | – | – | 100.0 | 99.3 | – | –
5 | NS(=O)(=O)Oc1cc(F)c(N2CCN(CCc3ccccc3)CC2)cc1F [Example 43, 2,5-difluoro-4-(4-phenethylpiperazin-1-yl)phenyl-O-sulfamate] | 101.1 | 99.90 | 99.98 | 98.5 | 87.0 | – | –
6 | NS(=O)(=O)Oc1ccc(N2CCN(CCc3ccc(Cl)cc3)CC2)cc1F [Example 22, 4-[4-[2-(4-chlorophenyl)ethyl]piperazin-1-yl]-2-fluorophenyl-O-sulfamate] | 74.6 | 99.85 | 99.98 | 97.3 | 85.0 | – | –
7 | NS(=O)(=O)Oc1cc(F)c(N2CCN(S(=O)(=O)Cc3ccc(Cl)cc3)CC2)cc1F [Example 56, 4-[(4-chlorobenzylsulfonyl)piperazin-1-yl]-2,5-difluorophenyl-O-sulfamate] | – | 99.37 | 99.81 | 99.9 | 98.4 | – | –
8 | CC(C)(C)c1ccc(C(=O)CCCN2CCN(c3cc(F)c(OS(N)(=O)=O)cc3F)CC2)cc1 [Example 48, 4-[4-[4-(4-tert-butylphenyl)-4-oxobutyl]piperazin-1-yl]-2,5-difluorophenyl-O-sulfamate] | 112.0 | – | – | 100.0 | 95.9 | – | –
9 | NS(=O)(=O)Oc1cc(F)c(N2CCC(CCCc3ccccc3)CC2)cc1F.O=S(=O)(O)c1ccccc1 [Example 59, 2,5-difluoro-4-[4-(3-phenylpropyl)piperidino]phenyl-O-sulfamate benzenesulfonate] | 105.3 | 100.00 | 100.00 | 99.0 | 95.4 | – | –
10 | NS(=O)(=O)Oc1cc(F)c(N2CCC(CCCc3ccccc3)CC2)cc1F [Example 37, 2,5-difluoro-4-[4-(3-phenylpropyl)piperidino]phenyl-O-sulfamate] | 89.5 | 99.85 | 99.95 | 98.9 | 93.6 | – | –
